Reference: publication PMC12848304, “Small-molecule inhibitor of C‑terminal HSP90 dimerization modulates autophagy and functions synergistically with mTOR inhibition to kill cisplatin-resistant cancer cells” (Cell Death & Disease, 2025)

Tests used:
HSP90β = molecular target: T1, HSP90β (Homo sapiens, UniProt P08238); experiment: TR-FRET HSP90 CTD/PPID interaction assay ([…]); format: biochemical
T1 construct: gene HSP90AB1; C-terminal domain (CTD); with PPID

HSP90α CTD = molecular target: T2, HSP90α CTD (Homo sapiens, UniProt P07900); experiment: thermal shift assay (SYPRO orange, […]) with recombinant HSP90α CTD; supported by BS3 cross-linking (loss of CTD dimers) and CETSA; format: binding; settings: read-out: thermal shift assay (SYPRO orange, 100 μM) with recombinant HSP90α CTD; supporte
T2 construct: gene HSP90AA1; recombinant C-terminal domain (CTD)
T2 sequence (P07900 626-732 limits assumed): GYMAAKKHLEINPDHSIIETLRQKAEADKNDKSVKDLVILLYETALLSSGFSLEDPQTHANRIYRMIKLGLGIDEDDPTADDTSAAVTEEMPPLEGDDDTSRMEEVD

T1 sequence (P08238 553-724 limits assumed): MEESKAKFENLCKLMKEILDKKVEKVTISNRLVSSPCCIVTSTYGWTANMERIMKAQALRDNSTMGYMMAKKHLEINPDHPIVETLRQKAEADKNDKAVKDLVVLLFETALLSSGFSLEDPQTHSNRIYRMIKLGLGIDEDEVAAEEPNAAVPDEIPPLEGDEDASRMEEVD
T1 sequence (Q08752 2-370 partner): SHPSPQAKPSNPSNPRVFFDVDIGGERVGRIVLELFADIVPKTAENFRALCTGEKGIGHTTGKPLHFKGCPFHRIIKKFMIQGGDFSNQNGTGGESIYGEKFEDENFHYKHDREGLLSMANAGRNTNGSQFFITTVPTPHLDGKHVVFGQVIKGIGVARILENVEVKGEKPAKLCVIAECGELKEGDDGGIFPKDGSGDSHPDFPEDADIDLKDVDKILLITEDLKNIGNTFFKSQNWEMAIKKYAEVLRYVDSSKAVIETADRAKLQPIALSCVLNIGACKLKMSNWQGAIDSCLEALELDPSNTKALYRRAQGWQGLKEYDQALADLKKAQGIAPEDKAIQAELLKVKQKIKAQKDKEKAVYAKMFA

- ΔTm at 100 µM (HSP90α CTD): -8.43 ± 2.75 °C
Structure (SMILES): CCC(C)n1c(C(=O)Nc2cnc(C(=O)NC)n(CC(C)C)c2=O)ncc(NC(=O)c2ncc(N)c(=O)n2Cc2ccc(OC)cc2)c1=O (centres unmarked) [compound 2, VWK147]
- TR-FRET HSP90 CTD/PPID interaction assay (1 mM) (HSP90β): VWK147 disrupts the binding of Peptidyl prolyl isomerase D (PPID, CTD-specific co-chaperone) to the CTD of recombinant HSP90β
